# Assay results: PMC11172460 (International Journal of Molecular Sciences, 2024)
# Experiments:
# [1] = Hydrolysis kinetics in rat whole blood; type: in vitro ADME
# Procedure: Kinetic analysis of Fer-Ger was performed by incubating the compound at 37 °C in heparinized whole blood obtained from healthy human volunteers or from male Wistar rats weighing 200–250 g. In particular, appropriate amounts of stock solution in DMSO were added to a volume of 3 mL of whole blood in order to obtain the final concentration of 30 µM (9.92 µg/mL). Samples (100 μL) were withdrawn at defined time intervals and immediately treated. Specifically, they were firstly added to ice-cold water (500 µL); then, sulfosalicylic acid (10%, 50 µL) and the internal standard (100 μM carbazole dissolved in a mixture of MeOH and H2O 50:50 v/v, 50 µL) were added; finally, 1 mL of H2O-saturated ethyl acetate was used twice as extraction solvent. The samples were centrifuged (13,500× g for 10 min) and the organic phase was evaporated under a nitrogen stream. The residue was re-suspended in a mixture of H2O and CH3CN (50:50 v/v, 150 µL) and centrifuged (16,000× g for 5 min). […] All the values were derived from the mean of three independent incubation experiments.
# (§1) The Fer-Ger degradation in whole blood or homogenates was analyzed as exponential decay plots of its concentrations versus incubation time, and the related half-life values were obtained from the linear regression of the corresponding semi-logarithmic plots. The quality of the fits was evaluated by considering the correlation coefficients (r) and p values. The computer program GraphPad Prism 7 (GraphPad, San Diego, CA, USA) allowed to perform the calculations.
# Fer-Ger and its hydrolysis product, Ger, were quantified by HPLC. The chromatographic apparatus consisted of a modular system (model LC-40D) pump and DAD detector (model SPD-M40, Shimadzu, Kyoto, Japan) and an injection valve with a 20 μL sample loop (model 7725; Rheodyne, IDEX, Torrance, CA, USA).
# [2] = Hydrolysis kinetics in rat brain homogenates; type: in vitro ADME; settings: within 3 h, 37 °C, 30 µM
# Procedure: Brains were obtained from male Wistar rats, which were sacrificed by decapitation after a slight isoflurane anesthesia. The brains were immediately separated and homogenized in 5 volumes (w/v) of Tris HCl (50 mM, pH 7.4, 4 °C) using an ultra-Turrax (IKA Werke GmbH & Co. KG, Staufen, Germany) with 3 × 15 s bursts. After centrifugation of the homogenate (3000× g for 15 min at 4 °C), the supernatant was isolated and stored at −80 °C until its use for in vitro kinetic studies. The Lowry procedure was adopted to quantify the total protein concentration in the brain homogenate, resulting in 7.4 ± 0.4 μg protein/μL.
# Kinetic analysis of Fer-Ger was performed by its incubation at 37 °C in 3 mL of rat liver or brain homogenates at 30 µM (9.92 µg/mL) final concentration. At defined time intervals, 100 μL of homogenates were withdrawn and immediately treated by quenching them in EtOH (250 µL), then an internal standard (100 μM carbazole dissolved in EtOH, 50 µL) was added. […]
# as §1, with “The computer program GraphPad Prism 7 (GraphPad, San Diego, CA, USA) allowed to perform the calculations.” left out
# Fer-Ger and its hydrolysis product, Ger, were quantified by HPLC. […]
# [3] = test system: neuronal differentiated N2a cells; experiment: Time-course of uptake in neuronal differentiated N2a cells; type: cell-based, mouse
# Procedure: N2a cells were seeded on T75 flasks and grown in Dulbecco’s Modified Eagle Medium (DMEM) containing Glutamax, supplemented with 100 μg/mL streptomycin, 100 IU/mL penicillin, and 10% fetal bovine serum (FBS) in a humidified 5% CO2 atmosphere at 37 °C. After two passages by trypsinization, cells were seeded at a density of 5 × 10^3 cells/well in 12-well plates with 2 mL of DMEM or at a density of 5 × 10^2 cells/well in 96-well plates with 0.2 mL of DMEM, depending on the study (see below). For neural differentiation, N2a cells were allowed to adhere and proliferate in wells for 4 days; then, after washing once with serum-free DMEM, differentiating medium composed of DMEM containing 1% HS and 20 μM all-trans-retinoic acid (atRA) was added in both the seeding conditions, up to 6 days of differentiation, after which the cells were used for the experiments.
# The potential ability of Fer-Ger to enter the neuronal cells of the brain, where it may exert its neuroprotective effects, was evaluated in 9 days-neuronal differentiated N2a cells (5 × 10^3 cells/well in a 12-well plate) at its best non-toxic concentrations of 5 µM and 10 µM in MTT. For their optimal dissolution, 5 µM and 10 µM Fer-Ger solutions in DPBS containing 0.1% BSA were kept for 30 min at 37 °C before the uptake experiment. Each of the 12-well plates was rinsed once with 1 mL of DPBS, and then 1 mL of 5 µM and 10 µM Fer-Ger was added to the test wells, and the plate was incubated for pre-determined interval times (5, 15, 30, and 60 min) in a humidified 5% CO2 atmosphere at 37 °C. The incubation was stopped at each time by taking the incubation DPBS from each well and storing it in Eppendorf tubes. […] The final number of cells was evaluated on untreated wells following their trypsinization and counted using the Scepter^TM 2.0 automated cell counter (Merck Millipore, Milan, Italy). Each reported value represents the mean of four independent incubation experiments.
# [4] = Hydrolysis in rat liver homogenates of free or SLM-encapsulated Fer-Ger; type: in vitro ADME
# Procedure: Since SLMs were suspended in the medium, it was difficult to withdraw several homogeneous samples, and consequently, stability was assessed by a single sampling after 10 min of incubation. Dichloromethane (1 mL) was added, and 250 μL was withdrawn from the samples and quenched in 500 μL of ice-cold ethanol added with 100 μL of internal standard (100 μM carbazole dissolved in ethanol). After 5 min of centrifugation at 16,000× g, 600 μL aliquots were reduced to dryness under a nitrogen stream. […] The same procedure was adopted for free Fer-Ger by adding appropriate amounts of stock solution in DMSO to a volume of 3 mL of rat liver homogenates in order to obtain the final concentration of 30 µM (9.92 µg/mL). In this case, the Fer-Ger hydrolysis was analyzed both in the absence or in the presence of unloaded Ts SLMs or Ts-glu SLMs, whose amounts were equivalent to those of their parent-loaded FG Ts SLMs or FG Ts-glu SLMs, respectively. All the values obtained are the means of four independent experiments.
smiles,measurement,setting,value
"COc1cc(/C=C/C(=O)OC/C=C(\C)CCC=C(C)C)ccc1O [Fer-Ger, Geranyl ferulate]",half-life at 30 µM,"[1]; male, Wistar, heparinized whole blood, rat whole blood, 37 °C, 30 µM, pseudo-first-order kinetic, read-out: half-life (t1/2) of hydrolysis",20.1 ± 0.75 min
same,time to almost complete degradation,[1]; rat whole blood,≤ 2 h
same,hydrolysis rate relative to human whole blood,[1]; rat whole blood vs human whole blood,about 10 times faster
same,hydrolysis / stability,[2],total absence of hydrolysis processes
same,"intracellular concentration (cellular uptake), saturation","[3]; 5 μM Fer-Ger in DPBS, within 60 min, 37 °C",18.36 ± 2.52 ng/5 × 10^4 cells
same,intracellular concentration (cellular uptake),"[3]; 5 μM Fer-Ger in DPBS, within the first 5 min of incubation, 37 °C",9.46 ± 0.98 ng/5 × 10^4 cells
same,"intracellular concentration (cellular uptake), steady state","[3]; 10 μM Fer-Ger in DPBS, within 60 min, 37 °C",46.73 ± 2.25 ng/5 × 10^4 cells
same,intracellular concentration (cellular uptake),"[3]; 10 μM Fer-Ger in DPBS, within the first 5–15 min of incubation, 37 °C",36.83 ± 1.65 ng/5 × 10^4 cells
same,hydrolysis by neuronal cells (Ger detection intra- and extracellular),"[3]; N2a cells, 5 and 10 μM, up to 60 min",not hydrolyzed by neuronal cells
same,hydrolysis rate in the presence of unloaded SLMs,[4]; free Fer-Ger in rat liver homogenates with unloaded SLMs,substantially unaffected
same,prodrug hydrolyzed,"[4]; free solubilized prodrug, 10 min incubation in rat liver homogenates, about 30 μM",about 90%
